Where two headings read alike, the source gives them in different places.
Columns and labels:
Assay type in all cases: in vivo
[1] = test system: Diabrotica balteata (rootworm larvae); assay: Residual test on rootworm larvae (DB), Filter paper/maize seed, mortality; details: 48 h, 500 ppm, residual, read-out: DB grading of mortality
Outline: (§1)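 Compound dissolved in acetone, diluted with water containing 0.01% by weight wetting agent to 500, 250 or 100 ppm. Pests held on host plant or foodstuff; pests and/or medium treated. Mortality scored one to three days later as grade A (80-100%), B (50-79%) or C (<50%) mortality or knockdown.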

[2] = test system: Tetranychus urticae (spider mites - ova); assay: Contact test on spider mites - ova (TUe), French bean leaf, mortality; details: 144 h, 500 ppm, contact, 6 days, read-out: TUe grading of mortality
Outline: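 Graded read-out: A 80-100%, B 50-79%, C below 50% mortality or knockdown, assessed usually 1-3 days post-treatment. Liquid preparations at 500, 250 or 100 ppm by weight, from acetone solution diluted in water with 0.01% wetting agent, applied to pests and/or their host plant or food medium.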

[3] = test system: Heliothis virescens (tobacco budworm - larvae); assay: Residual test on tobacco budworm larvae (HV), Cotton leaf, mortality; details: 48 h, read-out: HV grading of mortality
Outline: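 Product in acetone diluted with water containing 0.01% Lissapol NX, at 500, 250 or 100 ppm; pests and/or host medium (here cotton leaf) treated. Mortality scored one to three days later, graded A (80-100%), B (50-79%), C (<50%).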

[4] = test system: Tetranychus urticae (spider mites - adult); assay: Contact test on spider mites - adult (TUa), French bean leaf, mortality; details: 72 h, 500 ppm, contact, 3 days, read-out: TUa grading of mortality
Outline: as §1

[5] = test system: Musca domestica (houseflies - adults); assay: Knockdown test on houseflies - adults (MD/KD), Cotton wool/sugar; details: 500 ppm, 4 hours, read-out: MD/KD grading of knockdown
Outline: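 Adult houseflies exposed to the compound at 500, 250 or 100 ppm in acetone/water with 0.01% wetting agent, on a cotton wool/sugar medium. Knockdown and mortality assessed, graded A (80-100%), B (50-79%) or C (<50%).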

[6] = test system: Blattella germanica (cockroach nymphs); assay: Residual test on cockroach nymphs (BG/R), Plastic pot, mortality; details: 72 h, 3 days, read-out: BG/R grading of mortality
Method: The activity of the Product was determined using a variety of insect pests. The Product was used in the form of liquid preparations containing 500, 250 or 100 parts per million (ppm) by weight of the Product. The preparations were made by dissolving the Product in acetone and diluting the solutions with water containing 0.01% by weight of a wetting agent sold under the trade name "LISSAPOL" NX until the liquid preparations contained the required concentration of the Product. "Lissapol" is a Registered Trade Mark.
The test procedure adopted with regard to each pest was basically the same and comprised supporting a number of the pests on a medium which was usually a host plant or a foodstuff on which the pests feed, and treating either or both the pests and the medium with the preparations. The mortality of the pests was then assessed at periods usually varying from one to three days after the treatment.
The results of the tests are given in Table III for each of the Products, at the rate in parts per million given in the second column as a grading of mortality designated as A, B or C wherein A indicates 80-100% mortality or knockdown, B indicates 50-79% mortality or knockdown and C indicates less than 50% mortality or knockdown.
BG/R Blattella germanica

Myzus persicae (aphids) = assay: Contact test on aphids (MP), Chinese Cabbage leaf, mortality; details: 72 h, 500 ppm, contact, 3 days, read-out: MP grading of mortality
Outline: as §1

[7] = test system: Spodoptera exigua (lesser army worm - larvae); assay: Residual test on lesser army worm larvae (SP), Cotton leaf, mortality; details: 48 h, 500 ppm, residual, read-out: SP grading of mortality
Outline: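 Product dissolved in acetone and diluted in water with 0.01% wetting agent to 500, 250 or 100 ppm; larvae and/or cotton leaf host treated. Mortality or knockdown scored one to three days later and graded A (80-100%), B (50-79%) or C (<50%).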

[8] = test system: Nephotettix cincticeps (green leaf hopper - nymphs); assay: Contact test on green leaf hopper nymphs (NC), Rice plant, mortality; details: 500 ppm, contact, read-out: NC grading of mortality
Outline: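 Product dissolved in acetone, diluted in water with 0.01% wetting agent to 500, 250 or 100 ppm; nymphs and/or host rice plants treated. Mortality or knockdown assessed 1–3 days later, graded A (80-100%), B (50-79%), C (<50%).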

[9] = test system: Musca domestica (houseflies - adults); assay: Contact test on houseflies - adults (MD), Cotton wool/sugar, mortality; details: 500 ppm, contact, read-out: MD grading of mortality
Outline: as §1

[10] = 72 h, * test duration of 3 days
[11] = 24 h, ** test duration of 1 day

`C[C@@H](OC(=O)[C@@H](c1cnc(C(C)(C)C)nc1)C1CC1)c1cccc(Oc2ccccc2)n1` (racemic) [Compound 90, (RS)-1-(6-phenoxypyrid-2-yl)ethyl (RS)-2-[2-(1,1-dimethylethyl)pyrimidin-5-yl]-2-cyclopropylacetate] was tested. Which mortality at 500 ppm ([1]; * test duration of 3 days) did it give?
The mortality at 500 ppm was 80 to 100%.

What about the mortality at 500 ppm [2] of the same compound?
The mortality at 500 ppm was less than 50%.

And the mortality at 500 ppm [3]?
Its mortality at 500 ppm is 80 to 100%.

What about the mortality at 500 ppm [4] of the same compound?
The mortality at 500 ppm was 80 to 100%.

And the pest or weed control at 500 ppm [5]?
Its pest or weed control at 500 ppm is 80 to 100%.

What about the mortality at 500 ppm [6] of the same compound?
Its mortality at 500 ppm is 80 to 100%.

What about the mortality at 500 ppm (Myzus persicae (aphids)) of the same compound?
The mortality at 500 ppm was 80 to 100%.

And the mortality at 500 ppm ([7]; * test duration of 3 days)?
The mortality at 500 ppm was 80 to 100%.

And the mortality at 500 ppm [8, 10]?
The mortality at 500 ppm was 80 to 100%.

And the mortality at 500 ppm [9, 11]?
The mortality at 500 ppm was 80 to 100%.

Which results are given for `COCc1c(F)c(F)c(COC(=O)C(c2cnc(C(C)(C)C)nc2)C2CC2)c(OC)c1F` (racemic) [Compound 92, 3,5,6-trifluoro-2-methoxy-4-(methoxymethyl)benzyl (RS)-2-[2-(1,1-dimethylethyl)pyrimidin-5-yl]-2-cyclopropylacetate]?
mortality at 500 ppm ([1]; * test duration of 3 days): < 50%; mortality at 500 ppm [2]: < 50%; mortality at 500 ppm [3]: 80 to 100%; mortality at 500 ppm [4]: 80 to 100%; pest or weed control at 500 ppm [5]: 80 to 100%; mortality at 500 ppm [6]: < 50%; mortality at 500 ppm (Myzus persicae (aphids)): 80 to 100%; mortality at 500 ppm ([7]; * test duration of 3 days): 80 to 100%; mortality at 500 ppm [8, 10]: 80 to 100%; mortality at 500 ppm [9, 11]: 80 to 100%

With `C=CCc1c(F)c(F)c(COC(=O)C(c2cnc(C(F)(F)F)nc2)C(C)C)c(F)c1F` (racemic) [Compound 114, 2,3,5,6-tetrafluoro-4-(prop-2-en-1-yl)benzyl (RS)-2-(2-trifluoromethylpyrimidin-5-yl)-3-methylbutanoate] as the compound, how does the mortality at 500 ppm ([1]; * test duration of 3 days) read?
The mortality at 500 ppm was 80 to 100%.

And the mortality at 500 ppm [2]?
Its mortality at 500 ppm is 80 to 100%.

What about the mortality at 500 ppm [3] of the same compound?
The mortality at 500 ppm was 80 to 100%.

What about the mortality at 500 ppm [4] of the same compound?
Its mortality at 500 ppm is 80 to 100%.

And the pest or weed control at 500 ppm [5]?
The pest or weed control at 500 ppm was 80 to 100%.

And the mortality at 500 ppm [6]?
The mortality at 500 ppm was 80 to 100%.

And the mortality at 500 ppm (Myzus persicae (aphids))?
Its mortality at 500 ppm is 80 to 100%.

And the mortality at 500 ppm ([7]; * test duration of 3 days)?
The mortality at 500 ppm was 80 to 100%.

And the mortality at 500 ppm [8, 10]?
Its mortality at 500 ppm is 80 to 100%.

And the mortality at 500 ppm ([9]; 72 h, 3 days)?
The mortality at 500 ppm was 80 to 100%.

Which mortality at 500 ppm ([1]; * test duration of 3 days) does the source give for `C=CCc1c(F)c(F)c(COC(=O)C(c2cnc(C)nc2)C(C)C)c(F)c1F` (racemic) [Compound 119] here?
The mortality at 500 ppm was 80 to 100%.

And the mortality at 500 ppm [2]?
The mortality at 500 ppm was less than 50%.

What about the mortality at 500 ppm [3] of the same compound?
Its mortality at 500 ppm is less than 50%.

And the mortality at 500 ppm [4]?
Its mortality at 500 ppm is 80 to 100%.

What about the pest or weed control at 500 ppm [5] of the same compound?
Its pest or weed control at 500 ppm is 80 to 100%.

What about the mortality at 500 ppm [6] of the same compound?
Its mortality at 500 ppm is 80 to 100%.

What about the mortality at 500 ppm (Myzus persicae (aphids)) of the same compound?
The mortality at 500 ppm was 80 to 100%.

And the mortality at 500 ppm ([7]; * test duration of 3 days)?
Its mortality at 500 ppm is 80 to 100%.

And the mortality at 500 ppm [8, 10]?
The mortality at 500 ppm was 80 to 100%.

And the mortality at 500 ppm [9, 11]?
Its mortality at 500 ppm is 80 to 100%.

With `COCc1c(F)c(F)c(COC(=O)C(c2cnc(C)nc2)C(C)(C)C)c(F)c1F` (racemic) [Compound 120, 2,3,5,6-tetrafluoro-4-(methoxymethyl)-benzyl (RS)-2-(2-methylpyrimidin-5-yl)-3,3-dimethylbutanoate] as the compound, how does the mortality at 500 ppm ([1]; 2 days) read?
Its mortality at 500 ppm is less than 50%.

And the mortality at 500 ppm [2]?
Its mortality at 500 ppm is less than 50%.

What about the mortality at 500 ppm [3] of the same compound?
Its mortality at 500 ppm is 80 to 100%.

What about the mortality at 500 ppm [4] of the same compound?
Its mortality at 500 ppm is 80 to 100%.

And the pest or weed control at 500 ppm [5]?
Its pest or weed control at 500 ppm is 80 to 100%.

What about the mortality at 500 ppm [6] of the same compound?
Its mortality at 500 ppm is less than 50%.

What about the mortality at 500 ppm (Myzus persicae (aphids)) of the same compound?
Its mortality at 500 ppm is 80 to 100%.

What about the mortality at 500 ppm ([7]; 2 days) of the same compound?
Its mortality at 500 ppm is 80 to 100%.

What about the mortality at 500 ppm ([8]; 48 h, 2 days) of the same compound?
Its mortality at 500 ppm is 80 to 100%.

And the mortality at 500 ppm ([9]; 72 h, 3 days)?
Its mortality at 500 ppm is 80 to 100%.

Which mortality at 500 ppm ([1]; * test duration of 3 days) does the source give for `CC(C)(C)c1ncc(C(C(=O)OCc2ccc(F)c(Oc3ccccc3)c2)C2CC2)cn1` (racemic) [Compound 125, 4-fluoro-3-phenoxybenzyl (RS)-2-[2-(1,1-dimethylethyl)pyrimidin-5-yl]-2cyclopropylacetate] here?
The mortality at 500 ppm was 80 to 100%.

And the mortality at 500 ppm [2]?
Its mortality at 500 ppm is less than 50%.

And the mortality at 500 ppm [3]?
Its mortality at 500 ppm is 80 to 100%.

What about the mortality at 500 ppm [4] of the same compound?
The mortality at 500 ppm was 80 to 100%.

What about the pest or weed control at 500 ppm [5] of the same compound?
The pest or weed control at 500 ppm was 50 to 79%.

And the mortality at 500 ppm [6]?
Its mortality at 500 ppm is less than 50%.

What about the mortality at 500 ppm (Myzus persicae (aphids)) of the same compound?
The mortality at 500 ppm was 80 to 100%.

What about the mortality at 500 ppm ([7]; * test duration of 3 days) of the same compound?
Its mortality at 500 ppm is 80 to 100%.

What about the mortality at 500 ppm [8, 10] of the same compound?
The mortality at 500 ppm was 80 to 100%.

And the mortality at 500 ppm [9, 11]?
Its mortality at 500 ppm is 50 to 79%.
